Positions of bridges follow the written chain, without caps; N, C: chain ends. Residues, ends and D or L forms follow the SMILES beside them. No end group written: not given here.
How the values were obtained:
[1] = system: LX-2 human hepatic stellate cell line; experiment: Real-time cell proliferation assay (xCELLigence); conditions: for Proliferative response of LX-2 cells at concentrations up to 400 nM: 4 days after single treatment, relative to GSP, ANOVA against peptide control; for EC50: read-out: EC50, LX-2 cell proliferation, xCELLigence SP, 3000 cells per well, serum-free medium, single treatment, proliferation measured 4 days after treatment, relative to scrambled peptide control GSP, variable slope dose-response fit, six replicates per treatment
Protocol: Real-time cell proliferation assays using xCELLigence technology were performed to assess the effects of GRN-P4A isomers and the mutant peptide GRN-L1m on the human hepatic stellate cell line LX-2.
Figure 7 Cell proliferation assay of GRN-P4A isomers and GRN-L1m on human hepatic stellate cells (LX-2). The five peptides were tested across a concentration range of 0.16 nM to 800 nM using the LX-2 human hepatic stellate cell line. Two negative controls were included: serum-free media (SFM) and a scrambled GRN-P4A peptide (GSP). The graphs display variable slope dose–response curves fitted to proliferation data measured 4 days after a single treatment application. […] Proliferation is expressed relative to the scrambled peptide control (GSP) and presented as mean ± SEM. Statistical significance was assessed using one-way ANOVA against the peptide control. ∗ = […], ∗∗ = p < 0.01, ∗∗∗ = p < 0.001, ∗∗∗∗ = p < 0.0001.
The LX-2 human hepatic stellate cell line was generously donated by Dr Lionel Hebbard. Cells were cultured and maintained in Dulbecco’s Modified Eagle Medium/Nutrient Mixture F-12 (DMEM/F12) with GlutaMAX (Gibco) with 2 × antibiotic/antimycotic solution (penicillin, streptomycin, and amphotericin B), supplemented with 2% fetal bovine serum (FBS) (Gibco), at 37°C and 5% CO2. For the negative control, cells were treated with scrambled granulin peptide (GSP) or serum free media diluent. Dried peptide powder was resuspended in Milli-Q water to 170 μM and diluted in serum-free DMEM/F12 media.
Cell proliferation was monitored in real time using the xCELLigence SP system (ACEA Biosciences), following previously established method ([37]). LX2 cells were seeded into a 96-well xCELLigence E-plate (Agilent) at a density of 3000 cells per well in 150 μl of medium, and placed in the xCELLigence system at 37°C with 5% CO2, for overnight monitoring ([38]). Treatments were applied in serum-free medium at 20 μl per well, achieving final concentrations of […] to 800 nM, with six replicates per treatment. The cell index (CI) was continuously monitored using the Real-Time Cell Analysis (RTCA) software (Agilent), with measurements taken every hour over 6 days following treatment. Cell indices were normalized to the baseline values prior to treatment, and cell proliferation was expressed as the relative number of cells compared to the negative control GRN-scrambled peptide (GSP). Statistical analysis was conducted using two-way ANOVA test with Holm-Sidak’s correction comparing controls to treatments at each timepoint with GraphPad Prism 9.3.1 (www.graphpad.com).

[2] = NMR at three temperatures to assess interconversion of isomer 1 into isomer 2; type: physicochemical; conditions: αH secondary shifts at 283 K, 290 K and 310 K, 0.2 mM peptide in water/D2O
Protocol: NMR spectra of isomer 1 were recorded at the three different temperatures of 290 K (standard conditions), 310 K (physiological temperature), and 283 K (lower temperature) to assess potential interconversion into isomer 2, the major oxidation product.
Lyophilized peptides were rehydrated in a mixture of 500 μl water and 50 μl D2O, to obtain a final concentration of 0.2 mM. NMR spectra were recorded at temperatures of 283, 290 and 310 K using a 600 MHz Bruker Avance III spectrometer (Bruker) equipped with a cryoprobe. Chemical shifts were referenced to external DSS (sodium trimethylsilylpropanesulfonate). Two-dimensional spectra included [^1H,^1H]-TOCSY, [^1H,^1H]-H/D exchange TOCSY, [^1H,^1H]-NOESY, [^1H,^1H]-COSY, [^1H,^1H]-exclusive correlation spectroscopy, [^1H,^13 C]-HSQC, and [^1H,^15 N]-HSQC with TOCSY and NOESY mixing times of 80 ms and 200 ms, respectively. NMR data processing and analysis were performed using TopSpin (Bruker), and peak assignments were made using CcpNMR Analysis (Collaborative Computing Project for NMR) based on the method outlined by Wuthrich ([28], [29]). Backbone torsion-angle restraints for phi and psi were predicted from ^1H and ^13C chemical-shift analyses, were predicted using TALOS-N ([30]). […] The αH secondary shifts were determined by subtracting random coil ^1H NMR chemical shifts ([19]) from the experimental αH chemical shifts. […]

[3] = system: wound healing in a mouse model; conditions: compared with Regranex; cited from earlier work
Excerpt: This study highlights the structural complexity and bioactivity of isomers in disulfide-rich peptides, with a focus on GRN-P4A. GRN-P4A is a mutant peptide derived from Ov-GRN12 − 35_3s, a truncated form of the liver fluke granulin Ov-GRN-1, known for its potent wound healing properties.

With “CPDAVYTCRPGQTCCRGLHGYGCC (also: bicyclic or more (positions not given here)) [GRN-P4A isomer 3]” the Cytotoxicity ([1]; LX-2 cells, xCELLigence, statement in the Discussion, likely due to peptide aggregation) was “displayed cytotoxicity” and the “Proliferative response of LX-2 cells at concentrations up to 400 nM” value (shortened to “Proliferative response of LX-2 cells”) ([1]; xCELLigence, listed as isomer 3) was “did not produce a statistically significant response”.

With “CPDAVYTCRPGQTCCRGLHGYGCC (also: bicyclic or more (positions not given here)) [GRN-P4A isomer 4]” the “Cell proliferation at higher concentrations” value ([1]; LX-2 cells, xCELLigence, statement in the Discussion, tested up to 800 nM) was “promoted cell proliferation at higher concentrations” and the “Proliferative response of LX-2 cells” value ([1]; xCELLigence, listed as isomer 4) was “did not produce a statistically significant response”.

With “CPDAVYTCRPGQTCCRGLHGYGCC (also: bicyclic or more (positions not given here)) [GRN-P4A isomer 1, Fully oxidized GRN-P4A topological isomer eluting first in RP-HPLC, mini-granulin fold]” the “Conformational stability / interconversion into isomer 2 with temperature” value ([2]; listed as Isomer 1) was “retained its structure across all tested temperatures”, the “Conformational stability / interconversion into isomer 2 with temperature” value ([2]; listed as isomer 1) was “no evidence of interconversion” and the “Proliferative response of LX-2 cells” value ([1]; xCELLigence) was “did not produce a statistically significant proliferative response”. For the same compound, the “Proliferative response of LX-2 cells” value ([1]; xCELLigence, listed as isomer 1) was “did not produce a statistically significant response”.

Work on CC(C)C[C@@H]1NC(=O)CNC(=O)[C@H](CCCNC(=N)N)NC(=O)[C@@H]2CSSC[C@@H](C(=O)O)NC(=O)[C@H](CSSC[C@@H]3NC(=O)[C@H]([C@@H](C)O)NC(=O)[C@H](Cc4ccc(O)cc4)NC(=O)[C@H](C(C)C)NC(=O)[C@H](C)NC(=O)[C@H](CC(=O)O)NC(=O)CNC(=O)[C@@H](N)CSSC[C@H](NC(=O)[C@H]([C@@H](C)O)NC(=O)[C@H](CCC(N)=O)NC(=O)CNC(=O)[C@@H]4CCCN4C(=O)[C@H](CCCNC(=N)N)NC3=O)C(=O)N2)NC(=O)CNC(=O)[C@H](Cc2ccc(O)cc2)NC(=O)CNC(=O)[C@H](Cc2c[nH]cn2)NC1=O [GRN-L1m] (H-CGDAVYTCRPGQTCCRGLHGYGCC-OH; disulfide 1-14, 8-23, 15-24) yielded an EC50 ([1]; LX-2 cells) of 318 nM.

Work on CC(C)C[C@@H]1NC(=O)CNC(=O)[C@H](CCCNC(=N)N)NC(=O)[C@@H]2CSSC[C@@H](C(=O)O)NC(=O)[C@H](CSSC[C@@H]3NC(=O)[C@H]([C@@H](C)O)NC(=O)[C@H](Cc4ccc(O)cc4)NC(=O)[C@H](C(C)C)NC(=O)[C@H](C)NC(=O)[C@H](CC(=O)O)NC(=O)[C@@H]4CCCN4C(=O)[C@@H](N)CSSC[C@H](NC(=O)[C@H]([C@@H](C)O)NC(=O)[C@H](CCC(N)=O)NC(=O)CNC(=O)[C@@H]4CCCN4C(=O)[C@H](CCCNC(=N)N)NC3=O)C(=O)N2)NC(=O)CNC(=O)[C@H](Cc2ccc(O)cc2)NC(=O)CNC(=O)[C@H](Cc2c[nH]cn2)NC1=O (single isomer, unassigned) [GRN-P4A isomer 2] yielded an EC50 ([1]; LX-2 cells) of 93 nM.

In the case of “CPDAVYTCRPGQTCCRGLHGYGCC (also: bicyclic or more (positions not given here)) [GRN-P4A, 24-residue peptide containing three disulfide bonds engineered from liver-fluke granulin Ov-GRN-1]”, the “Wound healing activity in a mouse model” value [3] is listed as “enhanced wound healing activity”.

Reference: publication PMC12270677, “Topological isomers of a potent wound healing peptide: Structural insights and implications for bioactivity” (The Journal of Biological Chemistry, 2025)
